In the kinase profiling compilation of Christmann-Franck et al. (2016):

What was measured:
Assay in all cases: KINOMEscan competition binding
Conditions in all cases: compound 10.0 µM
[1] = target: ACVRL1 (human) (UniProt P37023)
[2] = target: BMPR1A (human) (UniProt P36894)
[3] = target: BRSK2 (human) (UniProt Q8IWQ3)
[4] = target: BTK (human) (UniProt Q06187)
[5] = target: CDC42BPB (human) (UniProt Q9Y5S2)
[6] = target: CDK3 (human) (UniProt Q00526)
[7] = target: CDK7 (human) (UniProt P50613)
[8] = target: CDK8 (human) (UniProt P49336)
[9] = target: DDR1 (human) (UniProt Q08345)
[10] = target: EGFR (human) (UniProt P00533)
[11] = target: EPHA6 (human) (UniProt Q9UF33)
[12] = target: FGFR3 (human) (UniProt P22607)
[13] = target: FYN (human) (UniProt P06241)
[14] = target: GAK (human) (UniProt O14976)
[15] = target: HIPK1 (human) (UniProt Q86Z02)
[16] = target: ITK (human) (UniProt Q08881)
[17] = target: KIT (human) (UniProt P10721)
[18] = target: LTK (human) (UniProt P29376)
[19] = target: LYN (human) (UniProt P07948)
[20] = target: MAP4K3 (human) (UniProt Q8IVH8)
[21] = target: MAPK9 (human) (UniProt P45984)
[22] = target: MAPKAPK2 (human) (UniProt P49137)
[23] = target: MARK2 (human) (UniProt Q7KZI7)
[24] = target: MET (human) (UniProt P08581)
[25] = target: MKNK1 (human) (UniProt Q9BUB5)
[26] = target: NEK7 (human) (UniProt Q8TDX7)
[27] = target: NLK (human) (UniProt Q9UBE8)
[28] = target: NUAK2 (human) (UniProt Q9H093)
[29] = target: PIM1 (human) (UniProt P11309)
[30] = target: PIP4K2B (human) (UniProt P78356)
[31] = target: PRKACA (human) (UniProt P17612)
[32] = target: RIOK3 (human) (UniProt O14730)
[33] = target: RPS6KA1 KD1 (human) (UniProt Q15418)
[34] = target: TYK2 JH2 pseudokinase (human) (UniProt P29597)
[35] = target: ULK3 (human) (UniProt Q6PHR2)

PIM1 (human), sequence (P11309 whole entry, looked up): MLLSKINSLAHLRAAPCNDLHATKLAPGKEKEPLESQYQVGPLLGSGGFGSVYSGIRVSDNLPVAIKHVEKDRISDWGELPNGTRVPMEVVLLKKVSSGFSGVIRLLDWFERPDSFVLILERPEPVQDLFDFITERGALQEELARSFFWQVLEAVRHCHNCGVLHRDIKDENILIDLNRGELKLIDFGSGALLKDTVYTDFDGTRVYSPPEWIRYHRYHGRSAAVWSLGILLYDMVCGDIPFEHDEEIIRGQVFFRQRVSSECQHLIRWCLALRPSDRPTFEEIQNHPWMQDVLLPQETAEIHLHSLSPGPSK
LYN (human), sequence (P07948 whole entry, looked up): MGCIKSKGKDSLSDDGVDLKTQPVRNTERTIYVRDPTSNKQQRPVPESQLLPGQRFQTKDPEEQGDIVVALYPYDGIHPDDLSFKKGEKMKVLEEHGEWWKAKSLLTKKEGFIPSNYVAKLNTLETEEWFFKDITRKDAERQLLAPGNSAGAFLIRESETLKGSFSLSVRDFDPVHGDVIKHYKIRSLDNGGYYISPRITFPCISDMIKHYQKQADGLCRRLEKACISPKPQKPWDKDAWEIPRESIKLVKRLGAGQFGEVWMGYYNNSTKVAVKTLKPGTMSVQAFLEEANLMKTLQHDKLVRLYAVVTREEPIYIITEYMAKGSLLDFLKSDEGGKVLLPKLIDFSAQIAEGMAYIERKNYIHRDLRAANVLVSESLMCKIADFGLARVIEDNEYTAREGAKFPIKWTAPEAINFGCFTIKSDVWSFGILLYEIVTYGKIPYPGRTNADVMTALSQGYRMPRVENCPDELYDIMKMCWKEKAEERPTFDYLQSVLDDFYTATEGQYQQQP
KIT (human), sequence (P10721 whole entry, looked up): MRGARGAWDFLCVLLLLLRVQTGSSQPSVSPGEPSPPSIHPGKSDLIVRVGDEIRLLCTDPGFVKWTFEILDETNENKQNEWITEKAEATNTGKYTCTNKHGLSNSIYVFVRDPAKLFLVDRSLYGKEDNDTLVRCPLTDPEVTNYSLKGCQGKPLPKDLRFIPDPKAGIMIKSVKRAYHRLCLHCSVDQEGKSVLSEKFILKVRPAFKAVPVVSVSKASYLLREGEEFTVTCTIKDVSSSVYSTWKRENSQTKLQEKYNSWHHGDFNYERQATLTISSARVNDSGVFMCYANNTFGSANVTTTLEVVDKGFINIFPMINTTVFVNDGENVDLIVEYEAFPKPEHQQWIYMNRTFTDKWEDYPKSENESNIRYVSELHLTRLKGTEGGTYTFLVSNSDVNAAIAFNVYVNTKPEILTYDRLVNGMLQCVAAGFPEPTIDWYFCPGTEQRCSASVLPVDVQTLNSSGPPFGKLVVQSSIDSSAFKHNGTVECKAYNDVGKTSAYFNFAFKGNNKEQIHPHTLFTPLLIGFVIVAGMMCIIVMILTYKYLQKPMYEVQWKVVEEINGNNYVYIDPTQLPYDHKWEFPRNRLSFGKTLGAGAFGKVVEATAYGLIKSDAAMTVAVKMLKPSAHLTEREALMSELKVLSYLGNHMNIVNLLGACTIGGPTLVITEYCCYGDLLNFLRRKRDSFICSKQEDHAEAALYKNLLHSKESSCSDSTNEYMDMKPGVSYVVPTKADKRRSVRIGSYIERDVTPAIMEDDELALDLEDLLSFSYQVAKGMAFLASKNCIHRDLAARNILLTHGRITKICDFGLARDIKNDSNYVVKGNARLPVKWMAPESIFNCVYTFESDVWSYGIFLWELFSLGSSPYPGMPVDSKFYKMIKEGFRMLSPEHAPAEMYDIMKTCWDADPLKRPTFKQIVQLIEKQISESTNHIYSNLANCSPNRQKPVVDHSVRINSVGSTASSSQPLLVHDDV
EGFR (human), sequence (P00533 whole entry, looked up): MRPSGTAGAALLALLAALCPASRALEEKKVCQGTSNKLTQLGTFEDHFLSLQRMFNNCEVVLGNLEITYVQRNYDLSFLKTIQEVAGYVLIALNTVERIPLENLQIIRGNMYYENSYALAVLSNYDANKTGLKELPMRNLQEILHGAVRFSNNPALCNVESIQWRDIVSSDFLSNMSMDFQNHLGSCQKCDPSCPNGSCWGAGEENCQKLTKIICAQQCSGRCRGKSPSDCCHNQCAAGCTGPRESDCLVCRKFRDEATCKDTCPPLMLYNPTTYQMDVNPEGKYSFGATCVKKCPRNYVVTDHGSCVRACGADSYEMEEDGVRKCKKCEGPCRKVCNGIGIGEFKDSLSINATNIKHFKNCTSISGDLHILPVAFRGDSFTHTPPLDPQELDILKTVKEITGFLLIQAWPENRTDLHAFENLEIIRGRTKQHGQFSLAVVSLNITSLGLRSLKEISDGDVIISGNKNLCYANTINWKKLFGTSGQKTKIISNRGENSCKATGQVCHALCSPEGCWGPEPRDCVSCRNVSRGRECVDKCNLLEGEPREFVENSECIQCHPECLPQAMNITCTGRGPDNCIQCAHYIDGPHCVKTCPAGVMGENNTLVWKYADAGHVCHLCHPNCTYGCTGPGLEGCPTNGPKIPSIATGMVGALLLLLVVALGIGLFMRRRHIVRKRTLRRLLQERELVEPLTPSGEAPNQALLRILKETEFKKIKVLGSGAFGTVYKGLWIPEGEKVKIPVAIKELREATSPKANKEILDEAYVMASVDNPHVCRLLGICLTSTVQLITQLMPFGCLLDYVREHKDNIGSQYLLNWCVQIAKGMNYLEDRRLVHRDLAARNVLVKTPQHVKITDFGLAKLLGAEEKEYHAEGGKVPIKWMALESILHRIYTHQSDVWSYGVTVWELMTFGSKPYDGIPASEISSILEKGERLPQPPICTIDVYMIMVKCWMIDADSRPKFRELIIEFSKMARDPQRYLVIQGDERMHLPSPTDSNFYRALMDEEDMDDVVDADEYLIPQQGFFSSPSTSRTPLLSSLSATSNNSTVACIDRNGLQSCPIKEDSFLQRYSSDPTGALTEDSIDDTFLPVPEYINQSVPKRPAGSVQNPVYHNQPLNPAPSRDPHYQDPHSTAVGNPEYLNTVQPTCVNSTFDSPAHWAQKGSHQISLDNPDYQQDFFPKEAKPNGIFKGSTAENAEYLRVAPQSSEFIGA
DDR1 (human), sequence (Q08345 whole entry, looked up): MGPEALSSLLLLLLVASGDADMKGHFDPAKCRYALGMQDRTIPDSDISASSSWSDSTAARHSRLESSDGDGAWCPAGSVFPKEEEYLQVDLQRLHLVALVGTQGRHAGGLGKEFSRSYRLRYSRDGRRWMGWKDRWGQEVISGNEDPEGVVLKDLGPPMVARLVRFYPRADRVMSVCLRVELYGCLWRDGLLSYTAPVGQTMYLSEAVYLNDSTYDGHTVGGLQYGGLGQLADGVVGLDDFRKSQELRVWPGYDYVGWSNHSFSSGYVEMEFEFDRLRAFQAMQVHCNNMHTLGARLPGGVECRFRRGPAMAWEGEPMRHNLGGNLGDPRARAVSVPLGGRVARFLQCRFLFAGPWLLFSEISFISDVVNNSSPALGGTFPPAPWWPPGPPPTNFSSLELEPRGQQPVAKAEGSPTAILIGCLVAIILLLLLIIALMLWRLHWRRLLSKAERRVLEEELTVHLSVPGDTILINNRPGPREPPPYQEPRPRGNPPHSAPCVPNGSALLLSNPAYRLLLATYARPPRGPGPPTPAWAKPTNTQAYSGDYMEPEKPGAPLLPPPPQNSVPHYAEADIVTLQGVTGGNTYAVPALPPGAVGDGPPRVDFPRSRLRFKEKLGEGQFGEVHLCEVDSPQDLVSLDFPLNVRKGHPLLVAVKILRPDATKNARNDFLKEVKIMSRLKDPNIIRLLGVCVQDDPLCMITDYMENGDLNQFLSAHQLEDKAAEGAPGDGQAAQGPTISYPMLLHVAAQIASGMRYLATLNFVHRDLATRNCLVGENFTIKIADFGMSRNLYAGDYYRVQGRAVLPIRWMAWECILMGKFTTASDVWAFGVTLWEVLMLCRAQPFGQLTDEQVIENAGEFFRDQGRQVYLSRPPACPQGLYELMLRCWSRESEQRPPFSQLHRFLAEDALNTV
MARK2 (human), sequence (Q7KZI7 whole entry, looked up): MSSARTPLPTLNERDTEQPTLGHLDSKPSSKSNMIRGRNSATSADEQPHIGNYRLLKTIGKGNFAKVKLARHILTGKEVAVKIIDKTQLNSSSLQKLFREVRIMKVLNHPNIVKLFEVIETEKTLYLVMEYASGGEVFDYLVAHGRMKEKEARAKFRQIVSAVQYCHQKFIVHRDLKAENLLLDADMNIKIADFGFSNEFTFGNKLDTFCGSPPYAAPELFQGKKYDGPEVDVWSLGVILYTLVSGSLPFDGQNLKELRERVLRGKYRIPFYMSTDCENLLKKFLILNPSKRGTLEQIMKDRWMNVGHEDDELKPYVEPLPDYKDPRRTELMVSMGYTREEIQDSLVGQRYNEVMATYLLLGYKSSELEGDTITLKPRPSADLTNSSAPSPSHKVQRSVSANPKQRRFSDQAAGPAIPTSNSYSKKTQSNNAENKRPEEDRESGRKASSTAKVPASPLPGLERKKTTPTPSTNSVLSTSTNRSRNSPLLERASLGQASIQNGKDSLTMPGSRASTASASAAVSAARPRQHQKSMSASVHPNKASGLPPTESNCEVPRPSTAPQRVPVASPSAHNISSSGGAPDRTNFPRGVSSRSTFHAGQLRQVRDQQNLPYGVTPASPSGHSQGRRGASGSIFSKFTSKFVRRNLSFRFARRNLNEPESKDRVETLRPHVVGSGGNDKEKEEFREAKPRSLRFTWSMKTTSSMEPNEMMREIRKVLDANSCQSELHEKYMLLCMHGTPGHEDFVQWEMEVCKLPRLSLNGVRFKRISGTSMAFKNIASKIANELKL
CDK3 (human), sequence (Q00526 whole entry, looked up): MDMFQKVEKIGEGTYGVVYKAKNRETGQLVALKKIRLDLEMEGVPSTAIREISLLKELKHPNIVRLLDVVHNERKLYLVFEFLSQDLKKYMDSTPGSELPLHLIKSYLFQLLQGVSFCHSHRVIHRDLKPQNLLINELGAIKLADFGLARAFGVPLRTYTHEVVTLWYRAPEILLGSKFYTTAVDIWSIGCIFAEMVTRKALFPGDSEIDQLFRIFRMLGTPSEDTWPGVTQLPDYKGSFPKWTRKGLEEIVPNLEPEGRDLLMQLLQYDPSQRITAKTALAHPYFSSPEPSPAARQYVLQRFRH

Row | SMILES | kinase still bound, per cent of control [1] | kinase still bound, per cent of control [3] | kinase still bound, per cent of control [4] | kinase still bound, per cent of control [5] | kinase still bound, per cent of control [6] | kinase still bound, per cent of control [7] | kinase still bound, per cent of control [8] | kinase still bound, per cent of control [9] | kinase still bound, per cent of control [10] | kinase still bound, per cent of control [11] | kinase still bound, per cent of control [12] | kinase still bound, per cent of control [13] | kinase still bound, per cent of control [14] | kinase still bound, per cent of control [16] | kinase still bound, per cent of control [17] | kinase still bound, per cent of control [18] | kinase still bound, per cent of control [19] | kinase still bound, per cent of control [20] | kinase still bound, per cent of control [21] | kinase still bound, per cent of control [22] | other results
1 | COc1cc(N2CCC(C(N)=O)CC2)ccc1Nc1nc(N)c(Cl)c(Nc2ccccc2S(=O)(=O)C(C)C)n1 | 100% | 100% | 26% | 100% | 100% | 100% | 100% | 100% | 0.55% | 100% | 100% | 100% | 2.5% | 100% | 100% | 0.6% | 100% | 100% | 100% | 100% | kinase still bound, per cent of control [2]: 100%; kinase still bound, per cent of control [15]: 100%; kinase still bound, per cent of control [23]: 100%; kinase still bound, per cent of control [24]: 100%; kinase still bound, per cent of control [25]: 100%; kinase still bound, per cent of control [26]: 100%; kinase still bound, per cent of control [27]: 100%; kinase still bound, per cent of control [28]: 100%; kinase still bound, per cent of control [29]: 100%; kinase still bound, per cent of control [30]: 100%; kinase still bound, per cent of control [31]: 100%; kinase still bound, per cent of control [32]: 100%; kinase still bound, per cent of control [33]: 100%; kinase still bound, per cent of control [34]: 100%; kinase still bound, per cent of control [35]: 100%
2 | COc1ccc(N(C(=O)Oc2cc(C(=O)Nc3cccc(C(F)(F)F)c3)ccc2C)c2ccnc(Nc3ccc(N4CCN(C)CC4)cc3)n2)c(OC)c1 | 100% | 100% | 1.4% | 100% | 100% | 100% | 100% | 0.55% | 3.4% | 0.35% | 3.7% | 1.4% | 26% | 100% | 0.8% | 2.7% | 0.95% | 100% | 19% | 100% | kinase still bound, per cent of control [23]: 100%; kinase still bound, per cent of control [24]: 100%; kinase still bound, per cent of control [25]: 100%; kinase still bound, per cent of control [26]: 100%; kinase still bound, per cent of control [27]: 30%; kinase still bound, per cent of control [28]: 100%; kinase still bound, per cent of control [29]: 100%; kinase still bound, per cent of control [30]: 100%; kinase still bound, per cent of control [31]: 33%; kinase still bound, per cent of control [32]: 100%; kinase still bound, per cent of control [33]: 100%
3 | COc1cc(C)c(Sc2cnc(NC(=O)c3ccc(CNC(C)C(C)C)cc3)s2)cc1C(=O)N1CCN(C(C)=O)CC1 (stereo unspecified) | 100% | 100% | 2.6% | 100% | 100% | 1.4% | 100% | 100% | 100% | 11% | 100% | 100% | 100% | 0.25% | 100% | 34% | 100% | 100% | 100% | 100% | kinase still bound, per cent of control [2]: 100%; kinase still bound, per cent of control [15]: 100%; kinase still bound, per cent of control [23]: 100%; kinase still bound, per cent of control [24]: 29%; kinase still bound, per cent of control [25]: 100%; kinase still bound, per cent of control [26]: 14%; kinase still bound, per cent of control [27]: 100%; kinase still bound, per cent of control [28]: 25%; kinase still bound, per cent of control [29]: 100%; kinase still bound, per cent of control [30]: 100%; kinase still bound, per cent of control [31]: 100%; kinase still bound, per cent of control [32]: 100%; kinase still bound, per cent of control [33]: 100%; kinase still bound, per cent of control [34]: 100%; kinase still bound, per cent of control [35]: 100%
